{"source": "patent US9399657B2", "about": "“Chemiluminescent methods and reagents for analyte detection” (priority 2007, dated 2016)", "origin": "cited, not measured here", "target": "firefly luciferase (Photinus pyralis, UniProt P08659)", "sequence (P08659 whole entry)": "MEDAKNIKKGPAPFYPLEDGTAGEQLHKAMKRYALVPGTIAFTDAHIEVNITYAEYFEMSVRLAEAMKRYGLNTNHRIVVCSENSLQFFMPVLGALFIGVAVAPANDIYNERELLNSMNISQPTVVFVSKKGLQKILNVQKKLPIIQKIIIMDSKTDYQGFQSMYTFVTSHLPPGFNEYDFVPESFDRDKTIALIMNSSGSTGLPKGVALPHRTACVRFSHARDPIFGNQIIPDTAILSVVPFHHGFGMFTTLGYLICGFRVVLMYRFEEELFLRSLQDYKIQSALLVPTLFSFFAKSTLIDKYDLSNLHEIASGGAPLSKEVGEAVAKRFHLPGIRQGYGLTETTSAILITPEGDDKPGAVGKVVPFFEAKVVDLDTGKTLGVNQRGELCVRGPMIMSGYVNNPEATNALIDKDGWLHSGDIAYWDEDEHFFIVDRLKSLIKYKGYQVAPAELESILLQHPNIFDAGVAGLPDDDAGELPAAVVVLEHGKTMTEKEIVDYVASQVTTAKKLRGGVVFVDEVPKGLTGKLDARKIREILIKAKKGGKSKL", "conditions": "read-out: IC50 (inhibitor of firefly luciferase bioluminescence reaction)", "data": [{"smiles": "O=C(O)c1csc(-c2nc3ccc(O)cc3s2)n1", "note": "[firefly dehydroluciferin]", "values": [{"measurement": "IC50", "value": 6, "unit": "nM"}]}]}
